According to paper PMC4598770, “Galectin Binding to Neo-Glycoproteins: LacDiNAc Conjugated BSA as Ligand for Human Galectin-3” (Biomolecules, 2015):

Molecular target: T1, human Gal-3 (Homo sapiens, UniProt P17931)
T1 construct: made in house; host or cells: E. coli Rosetta (DE3) pLysS
Test: Competitive inhibition of Gal-3 binding to immobilized ASF
Settings: for IC50: 5 µM galectin-3 binding to immobilized ASF; for Relative potency: related to the corresponding tetrasaccharide (4 or 5); for Relative potency per glycan: related to the corresponding tetrasaccharide and to one binding site
Method: Neo-glycoproteins were used as inhibitors of Gal-3 to ASF binding in competitive inhibition assays performed as described. The standard glycoprotein ASF (Sigma-Aldrich) was immobilized in microtiter plates as described above for neo-glycoproteins. After blocking, 5 µM Gal-3 and varying concentration of 11j, 11k, 11g and 12j, 12k, 12g were simultaneously incubated for 1 h followed by detection of bound Gal-3 as described above. Measured data were fitted and IC50 values calculated using Sigma Plot software (Systat software GmbH).

T1 sequence (P17931 whole entry): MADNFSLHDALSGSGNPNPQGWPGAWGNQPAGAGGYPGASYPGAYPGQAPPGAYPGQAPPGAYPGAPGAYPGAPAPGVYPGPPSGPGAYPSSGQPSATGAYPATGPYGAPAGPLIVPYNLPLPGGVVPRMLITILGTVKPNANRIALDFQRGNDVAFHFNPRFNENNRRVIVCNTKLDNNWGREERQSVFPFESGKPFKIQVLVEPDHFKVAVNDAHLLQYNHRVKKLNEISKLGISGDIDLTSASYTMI

Structure (SMILES)	IC50 [µM]	Relative potency (5 µM galectin-3, ASF)	Relative potency per glycan (5 µM galectin-3, ASF)	Higher inhibition of Gal-3 binding compared to 4 (5 µM galectin-3, ASF, compared with LacNAc-LacNAc (4)) [fold]
CC(=O)N[C@@H]1[C@@H](O)[C@H](O[C@@H]2O[C@H](CO)[C@H](O)[C@H](O[C@@H]3O[C@H](CO)[C@@H](O[C@@H]4O[C@H](CO)[C@H](O)[C@H](O)[C@H]4O)[C@H](O)[C@H]3NC(C)=O)[C@H]2O)[C@@H](CO)O[C@H]1NC(=S)NCCNC(=O)OC(C)(C)C [Compound 4, Galβ1, 4GlcNAcβ1, 3Galβ1, 4GlcNAcβ1-linker-NH2-tBoc]	13 ± 3.43	1.0 ± 0.26	1.0 ± 0.26	–
CC(=O)N[C@@H]1[C@@H](O)[C@H](O[C@@H]2O[C@H](CO)[C@H](O)[C@H](O[C@@H]3O[C@H](CO)[C@@H](O[C@@H]4O[C@H](CO)[C@H](O)[C@H](O)[C@H]4NC(C)=O)[C@H](O)[C@H]3NC(C)=O)[C@H]2O)[C@@H](CO)O[C@H]1NC(=S)NCCNC(=O)OC(C)(C)C [Compound 5, GalNAcβ1,4GlcNAcβ1,3Galβ1,4GlcNAcβ1-linker-NH2-tBoc]	7.23 ± 0.87	1.0 ± 0.12	1.0 ± 0.12	1.5
